A short description of series [1]: Heat resistance: change in chromaticity ΔEab* of the coated glass substrate after hot plate heating. The class given is physicochemical. As to conditions: 200° C. for one hour. The protocol: The glass substrate coated with the dye resist solution was placed on a hot plate such that its surface was in contact with the hot plate and heated at 200° C. for one hour to measure a change in chromaticity, namely ΔEab* value, before and after the substrate was placed, by using a chromaticity meter (trade name: MCPD-1000, manufactured by Otsuka Electronics Co., Ltd.). The obtained ΔEab* value was adopted as an index showing the degree of […] and evaluated based on the following criteria. The smaller the ΔEab* value is, the higher the heat resistance is.
• A: ΔEab* was 5 or less. • B: ΔEab* exceeded 5 and was less than 10. • C: ΔEab* was 10 or more. —Light Fastness—

Series [2] in a line: Light fastness: change in chromaticity ΔEab* of the coated glass substrate after xenon lamp irradiation. The format is physicochemical. As to conditions: xenon lamp 50,000 Lux for 10 hours. The protocol: The glass substrate coated with the dye resist solution was irradiated with 50,000 Lux light from a xenon lamp for 10 hours (corresponding to 500,000 Lux·h) and then, a change in chromaticity, namely ΔEab* value, before and after the irradiation was measured. The obtained ΔEab* value was adopted as an index showing the degree of […] and evaluated based on the following criteria. The smaller the ΔEab* value is, the higher the […] is.
• A: ΔEab* was 3 or less. • B: ΔEab* exceeded 3 and was less than 10. • C: ΔEab* was 10 or more. —Pattern Shape—
A cyan pattern image was obtained by carrying out coating, prebaking, irradiation, developing, rinsing and drying in the same manner as in Example 1 and then heated at 180° C. for 5 minutes. Also, the heat resistance, light fastness and pattern shape were evaluated in the same manner as in Example 1 and also the solubility of the dye (exemplified compound (3)) was evaluated visually according to the same criteria as in Example 1 from the degree of solubility when the dye was dissolved in the above “1) Preparation of a dye resist solution (positive type dye-containing curable composition)”.

Where [3] appears, read: positive type dye resist film on glass.
[4] abbreviates: negative type dye resist film on glass.

With `Cc1cc(C)n(-c2ccc3c(c2)-c2nc-3nc3[n-]c(nc4nc(nc5[n-]c(n2)c2ccc(-n6nc(C)cc6C)cc52)-c2cc(-n5nc(C)cc5C)ccc2-4)c2ccc(-n4nc(C)cc4C)cc32)n1.[Ni+2]` [Exemplified compound (16)], in series [1] (setting [3]), the Heat resistance result is reported as “A (ΔEab* was 5 or less.)”. Also, the Light fastness result in series [2] (setting [3]) was “A (ΔEab* was 3 or less.)”.
Consider “Tetra-α-(3,5-dimethylpyrazolyl)zinc phthalocyanine [Exemplified compound (3)]”, for which the Heat resistance result in series [1] (setting [4]) and in series [1] (setting [3]) was “A (ΔEab* was 5 or less.)” throughout. Also, the Light fastness entry in series [2] (setting [4]) and in series [2] (setting [3]) was “A (ΔEab* was 3 or less.)” throughout.
Turning to “Tetra-β-(3,5-dimethylpyrazolyl)zinc phthalocyanine [Exemplified compound (4)]”, the Heat resistance entry in series [1] (setting [4]) and in series [1] (setting [3]) was “A (ΔEab* was 5 or less.)” in each case. Moreover, the Light fastness entry in series [2] (setting [4]) and in series [2] (setting [3]) was “A (ΔEab* was 3 or less.)” throughout.

Values taken from US20050208394A1, “Dye-containing curable composition, color filter and method of producing the color filter” (FUJI PHOTO FILM CO., LTD., priority 2004, published 2005).
